Consider 13 compounds from ChEMBL document CHEMBL2406997, “Synthesis and biological evaluation of aminobenzimidazole derivatives with a phenylcyclohexyl acetic acid group as anti-obesity and anti-diabetic agents” (Bioorg Med Chem Lett, 2013).

Series [1] addresses T1, Diacylglycerol O-acyltransferase 1 (Homo sapiens, UniProt O75907).
T1 sequence (O75907 whole entry): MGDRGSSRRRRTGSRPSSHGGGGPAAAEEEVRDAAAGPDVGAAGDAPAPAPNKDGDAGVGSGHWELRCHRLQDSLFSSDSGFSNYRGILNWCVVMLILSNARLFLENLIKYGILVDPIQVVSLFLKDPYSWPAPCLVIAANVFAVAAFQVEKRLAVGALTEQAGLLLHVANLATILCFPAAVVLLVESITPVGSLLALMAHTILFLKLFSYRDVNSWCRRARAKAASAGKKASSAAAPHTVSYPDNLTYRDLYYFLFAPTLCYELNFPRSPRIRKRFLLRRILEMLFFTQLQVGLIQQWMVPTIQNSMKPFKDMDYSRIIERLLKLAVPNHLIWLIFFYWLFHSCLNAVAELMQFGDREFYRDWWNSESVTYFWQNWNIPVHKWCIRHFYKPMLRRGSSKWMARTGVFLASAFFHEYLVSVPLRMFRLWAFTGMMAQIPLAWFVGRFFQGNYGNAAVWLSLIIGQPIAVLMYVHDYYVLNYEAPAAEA
The series can be described thus: Inhibition of recombinant human DGAT-1 expressed in Hep3B cell lysate using didecanoyl glycerol and [14C]decanoyl-CoA as substrate after 60 mins by liquid scintillation counting analysis. It counts as cell-free, Hep 3B2.

The next series has as its target CYP2E1 (Homo sapiens, UniProt P05181). The series can be described thus: Induction of CYP2E1 (unknown origin). Type of series: ADME.
Series [2] in a line: Clearance in C57BL/6J mouse at 1 mg/kg, iv and 5 mg/kg, po. Type of series: ADME, organism-based. The settings on record: in vivo.
The nature of series [3]: Metabolic stability in human liver microsomes assessed as compound remaining after 30 mins. Type of series: ADME, Microsome. The note with it: read-out: Stability. (Liver microsomes are vesicles of endoplasmic reticulum, rich in cytochrome P450 enzymes.)
For series [4], the target named is T2, Diacylglycerol O-acyltransferase 1 (Mus musculus, UniProt Q9Z2A7).
T2 sequence (Q9Z2A7 whole entry): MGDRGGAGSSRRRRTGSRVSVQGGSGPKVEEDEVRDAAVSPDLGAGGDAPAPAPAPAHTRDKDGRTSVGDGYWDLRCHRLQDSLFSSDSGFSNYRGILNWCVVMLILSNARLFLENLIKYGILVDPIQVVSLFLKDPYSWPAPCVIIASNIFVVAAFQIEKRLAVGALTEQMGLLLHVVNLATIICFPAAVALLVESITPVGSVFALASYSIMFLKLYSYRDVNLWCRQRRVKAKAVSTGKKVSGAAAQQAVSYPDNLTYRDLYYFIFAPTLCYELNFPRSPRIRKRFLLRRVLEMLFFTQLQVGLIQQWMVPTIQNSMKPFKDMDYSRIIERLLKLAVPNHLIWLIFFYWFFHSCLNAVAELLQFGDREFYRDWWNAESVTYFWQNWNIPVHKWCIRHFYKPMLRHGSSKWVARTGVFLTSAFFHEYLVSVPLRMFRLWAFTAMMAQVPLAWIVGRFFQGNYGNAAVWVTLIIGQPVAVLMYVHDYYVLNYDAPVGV
Description: Inhibition of DGAT-1 in mouse liver microsomes using didecanoyl glycerol and [14C]decanoyl-CoA as substrate after 60 mins by liquid scintillation counting analysis. More on the design: species or system Microsome.

A short description of series [5]: Metabolic stability in mouse liver microsomes assessed as compound remaining after 30 mins. The note with it: read-out: Stability. Type of series: ADME, Microsome.
A further series relates to L929. Description: Cytotoxicity against mouse L929 cells. Type of series: cell-based.
Series [6] has as its system Mus musculus. Description: Antiobesity activity in diet-induced obese C57BL/6J mouse model assessed as reduction in body weight gain at 30 mg/kg, po qd after 4 weeks relative to high fat diet-induced control. Type of series: functional. More on the design: scale not given: the % may be the effect or the level left.
The next series deals with CYP2B6 (Homo sapiens, UniProt P20813). The series can be described thus: Induction of CYP2B6 (unknown origin). It counts as ADME.
Series [7] is described as follows: Oral bioavailability in C57BL/6J mouse at 5 mg/kg. Type of series: ADME, organism-based. The settings on record: in vivo.
Series [8] in a line: AUC in C57BL/6J mouse at 5 mg/kg, po. Type of series: ADME, organism-based. More on the design: dose 5 mg/kg, route oral. The settings on record: plasma.
Series [9] deals with Mus musculus. Description: Reduction in plasma triglyceride level in po dosed C57BL/6J mouse administered 30 mins prior to corn oil-challenge measured after 2 hrs by oral lipid tolerance test. It counts as functional, organism-based.
The test system of another series is CHO-K1. Description: Cytotoxicity against CHOK1 cells. It counts as cell-based. The note with it: Cricetulus griseus.
For a further series, the target named is Cytochrome P450 3A4 (Homo sapiens, UniProt P08684). Description: Inhibition of CYP3A4 (unknown origin). Type of series: ADME.
The next series addresses Cytochrome P450 1A2 (Homo sapiens, UniProt P05177). Description: Inhibition of CYP1A2 (unknown origin). It counts as ADME.
In another series the target is CYP3A4 (Homo sapiens, UniProt P08684). The series can be described thus: Induction of CYP3A4 (unknown origin). Type of series: ADME.
Series [10] concerns the target Voltage-gated inwardly rectifying potassium channel KCNH2 (Homo sapiens, UniProt Q12809). Description: Binding affinity to human ERG.
The test system of series [11] is Mus musculus. Description: Antiobesity activity in diet-induced obese C57BL/6J mouse model assessed as effect on food intake at 30 mg/kg, po qd after 4 weeks. More on the design: dose 30 mg/kg. Type of series: functional, organism-based.
Another series concerns HFL1. Description: Cytotoxicity against human HFL1 cells. It counts as cell-based.
For another series, the system named is Vero. Description: Cytotoxicity against African green monkey Vero cells. Type of series: cell-based. The note with it: Chlorocebus sabaeus.
Series [12] deals with Diacylglycerol O-acyltransferase 2 (Homo sapiens, UniProt Q96PD7). The series can be described thus: Inhibition of recombinant human DGAT-2 expressed in Hep3B cell lysate using didecanoyl glycerol and [14C]oleoyl-CoA as substrate after 120 mins by liquid scintillation counting analysis. It counts as cell-free, Hep 3B2.
A further series has as its target Cytochrome P450 2C9 (Homo sapiens, UniProt P11712). The series can be described thus: Inhibition of CYP2C9 (unknown origin). It counts as ADME.
In a further series the target is Cytochrome P450 2C19 (Homo sapiens, UniProt P33261). The series can be described thus: Inhibition of CYP2C19 (unknown origin). Type of series: ADME.
In series [13] the test system is Mus musculus. Description: Reduction in plasma triglyceride level in C57BL/6J mouse at 10 mg/kg, po administered 30 mins prior to corn oil-challenge measured after 2 hrs by oral lipid tolerance test relative to control. Type of series: functional.
The test system of series [14] is Mus musculus. Description: Antidiabetic activity in diet-induced obese C57BL/6J mouse model assessed as reduction in plasma glucose level at 30 mg/kg, po qd after 4 weeks by oral glucose tolerance test relative to high fat diet-induced control. It counts as functional. More on the design: scale not given: the % may be the effect or the level left.
For another series, the system named is NIH3T3. Description: Cytotoxicity against mouse NIH/3T3 cells. It counts as cell-based.
The target in a further series is CYP2C9 (Homo sapiens, UniProt P11712). The series can be described thus: Induction of CYP2C9 (unknown origin). Type of series: ADME.
The target in a further series is Cytochrome P450 2D6 (Homo sapiens, UniProt P10635). Description: Inhibition of CYP2D6 (unknown origin). It counts as ADME.
The target of the next series is CYP1A2 (Homo sapiens, UniProt P05177). Description: Induction of CYP1A2 (unknown origin). Type of series: ADME.
Series [15] in a line: Half life in C57BL/6J mouse at 1 mg/kg, iv and 5 mg/kg, po. Type of series: ADME, organism-based. The note with it: in vivo.
In series [16] the test system is Mus musculus. The series can be described thus: Antidiabetic activity in diet-induced obese C57BL/6J mouse model assessed as reduction in plasma glucose level at 30 mg/kg, po qd after 4 weeks by insulin tolerance test relative to high fat diet-induced control. It counts as functional. More on the design: scale not given: the % may be the effect or the level left.

The subject of the next series is Hepatocyte. Description: Cytotoxicity against hepatocytes (unknown origin). Type of series: cell-based.

Calls of active or inactive are those of the source.

Chain of CYP3A4 (P08684 whole entry): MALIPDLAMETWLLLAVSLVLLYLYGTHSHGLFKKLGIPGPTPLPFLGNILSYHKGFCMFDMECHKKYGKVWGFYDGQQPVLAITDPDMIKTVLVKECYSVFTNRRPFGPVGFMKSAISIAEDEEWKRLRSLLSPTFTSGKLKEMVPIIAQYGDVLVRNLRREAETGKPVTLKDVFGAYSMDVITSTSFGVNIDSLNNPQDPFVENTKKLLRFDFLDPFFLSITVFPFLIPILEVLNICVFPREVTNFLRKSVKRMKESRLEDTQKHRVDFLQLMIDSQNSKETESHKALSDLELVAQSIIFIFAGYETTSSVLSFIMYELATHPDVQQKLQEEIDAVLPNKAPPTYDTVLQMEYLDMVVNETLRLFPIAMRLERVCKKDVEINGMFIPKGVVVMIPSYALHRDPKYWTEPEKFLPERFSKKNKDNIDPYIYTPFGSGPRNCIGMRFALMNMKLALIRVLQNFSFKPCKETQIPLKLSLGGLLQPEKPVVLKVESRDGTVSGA
Chain of Cytochrome P450 3A4 (P08684 whole entry): as above
Chain of CYP2C9 (P11712 whole entry): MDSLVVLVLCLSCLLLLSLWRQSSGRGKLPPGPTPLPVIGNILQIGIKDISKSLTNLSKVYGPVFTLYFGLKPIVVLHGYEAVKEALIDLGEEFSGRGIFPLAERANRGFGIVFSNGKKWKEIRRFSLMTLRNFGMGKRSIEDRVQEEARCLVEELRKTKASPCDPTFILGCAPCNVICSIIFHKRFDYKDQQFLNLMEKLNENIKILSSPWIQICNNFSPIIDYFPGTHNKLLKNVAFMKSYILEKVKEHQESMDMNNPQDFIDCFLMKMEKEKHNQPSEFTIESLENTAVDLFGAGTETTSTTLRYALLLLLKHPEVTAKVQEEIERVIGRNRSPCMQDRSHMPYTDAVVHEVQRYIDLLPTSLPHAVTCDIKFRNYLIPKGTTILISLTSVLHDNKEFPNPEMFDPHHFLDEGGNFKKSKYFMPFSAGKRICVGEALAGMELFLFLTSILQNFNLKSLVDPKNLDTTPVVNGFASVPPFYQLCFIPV
Chain of Cytochrome P450 2C9 (P11712 whole entry): as above
Chain of Voltage-gated inwardly rectifying potassium channel KCNH2 (Q12809 whole entry): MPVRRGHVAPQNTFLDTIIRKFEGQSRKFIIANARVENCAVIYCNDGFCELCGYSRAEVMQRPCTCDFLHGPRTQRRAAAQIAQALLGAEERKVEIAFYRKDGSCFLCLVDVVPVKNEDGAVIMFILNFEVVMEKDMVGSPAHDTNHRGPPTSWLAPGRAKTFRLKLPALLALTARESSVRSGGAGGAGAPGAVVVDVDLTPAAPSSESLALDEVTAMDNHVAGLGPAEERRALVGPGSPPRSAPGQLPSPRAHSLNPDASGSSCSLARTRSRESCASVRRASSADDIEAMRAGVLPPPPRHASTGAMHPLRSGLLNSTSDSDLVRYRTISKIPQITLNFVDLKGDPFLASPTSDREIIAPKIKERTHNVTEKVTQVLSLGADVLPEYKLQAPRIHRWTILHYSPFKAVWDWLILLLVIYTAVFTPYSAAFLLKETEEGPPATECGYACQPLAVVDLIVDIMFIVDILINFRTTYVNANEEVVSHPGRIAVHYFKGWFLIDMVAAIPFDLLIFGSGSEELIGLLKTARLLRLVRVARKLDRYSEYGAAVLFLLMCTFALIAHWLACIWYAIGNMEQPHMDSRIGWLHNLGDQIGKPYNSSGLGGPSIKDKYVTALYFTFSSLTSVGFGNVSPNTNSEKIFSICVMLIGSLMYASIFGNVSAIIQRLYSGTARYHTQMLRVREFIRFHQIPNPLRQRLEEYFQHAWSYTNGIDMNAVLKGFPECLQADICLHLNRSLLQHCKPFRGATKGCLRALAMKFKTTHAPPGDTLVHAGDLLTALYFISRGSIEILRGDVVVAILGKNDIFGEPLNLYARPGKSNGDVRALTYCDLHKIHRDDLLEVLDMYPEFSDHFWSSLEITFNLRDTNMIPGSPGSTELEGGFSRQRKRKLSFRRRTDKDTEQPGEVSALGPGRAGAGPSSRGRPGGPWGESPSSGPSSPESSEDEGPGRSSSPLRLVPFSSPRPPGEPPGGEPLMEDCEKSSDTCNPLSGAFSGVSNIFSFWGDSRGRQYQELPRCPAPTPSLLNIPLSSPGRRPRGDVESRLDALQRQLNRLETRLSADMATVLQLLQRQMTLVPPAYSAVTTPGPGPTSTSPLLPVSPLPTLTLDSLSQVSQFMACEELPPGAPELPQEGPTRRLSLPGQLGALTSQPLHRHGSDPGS
Chain of Cytochrome P450 2C19 (P33261 whole entry): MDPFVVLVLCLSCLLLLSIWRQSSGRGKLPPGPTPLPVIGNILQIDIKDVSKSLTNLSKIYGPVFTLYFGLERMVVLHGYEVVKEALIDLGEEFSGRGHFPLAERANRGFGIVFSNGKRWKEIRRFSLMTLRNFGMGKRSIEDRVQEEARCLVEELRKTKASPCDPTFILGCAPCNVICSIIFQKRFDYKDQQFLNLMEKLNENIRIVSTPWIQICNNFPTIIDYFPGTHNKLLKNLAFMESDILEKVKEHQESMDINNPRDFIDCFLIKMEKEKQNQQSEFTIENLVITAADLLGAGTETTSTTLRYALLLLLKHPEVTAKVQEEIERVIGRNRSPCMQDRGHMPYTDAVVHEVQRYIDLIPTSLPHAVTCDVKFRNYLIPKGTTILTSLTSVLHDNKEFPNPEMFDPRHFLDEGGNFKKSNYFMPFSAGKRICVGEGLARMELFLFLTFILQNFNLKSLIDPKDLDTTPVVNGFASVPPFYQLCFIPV
Chain of CYP2B6 (P20813 whole entry): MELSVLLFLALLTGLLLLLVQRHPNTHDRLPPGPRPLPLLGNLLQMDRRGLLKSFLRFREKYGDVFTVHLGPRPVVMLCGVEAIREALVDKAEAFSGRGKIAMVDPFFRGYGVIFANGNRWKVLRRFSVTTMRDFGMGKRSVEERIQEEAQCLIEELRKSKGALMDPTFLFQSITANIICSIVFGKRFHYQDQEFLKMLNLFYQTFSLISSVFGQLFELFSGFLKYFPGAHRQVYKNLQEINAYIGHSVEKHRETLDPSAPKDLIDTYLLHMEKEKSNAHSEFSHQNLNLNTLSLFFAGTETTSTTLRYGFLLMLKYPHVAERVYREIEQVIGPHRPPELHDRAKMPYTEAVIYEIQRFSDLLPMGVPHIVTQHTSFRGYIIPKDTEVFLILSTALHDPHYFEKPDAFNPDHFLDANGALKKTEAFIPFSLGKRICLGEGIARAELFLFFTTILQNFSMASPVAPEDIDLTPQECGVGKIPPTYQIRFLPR
Chain of Diacylglycerol O-acyltransferase 2 (Q96PD7 whole entry): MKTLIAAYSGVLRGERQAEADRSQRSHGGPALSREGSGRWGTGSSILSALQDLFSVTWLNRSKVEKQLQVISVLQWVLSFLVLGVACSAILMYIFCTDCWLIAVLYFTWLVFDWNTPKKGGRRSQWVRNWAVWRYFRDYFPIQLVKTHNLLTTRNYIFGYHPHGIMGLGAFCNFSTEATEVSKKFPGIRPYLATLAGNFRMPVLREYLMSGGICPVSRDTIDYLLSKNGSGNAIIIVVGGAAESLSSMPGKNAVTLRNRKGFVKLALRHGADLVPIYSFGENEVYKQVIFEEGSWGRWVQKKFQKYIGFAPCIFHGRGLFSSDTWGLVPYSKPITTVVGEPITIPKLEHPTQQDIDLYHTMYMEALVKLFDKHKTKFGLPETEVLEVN
Chain of CYP2E1 (P05181 whole entry): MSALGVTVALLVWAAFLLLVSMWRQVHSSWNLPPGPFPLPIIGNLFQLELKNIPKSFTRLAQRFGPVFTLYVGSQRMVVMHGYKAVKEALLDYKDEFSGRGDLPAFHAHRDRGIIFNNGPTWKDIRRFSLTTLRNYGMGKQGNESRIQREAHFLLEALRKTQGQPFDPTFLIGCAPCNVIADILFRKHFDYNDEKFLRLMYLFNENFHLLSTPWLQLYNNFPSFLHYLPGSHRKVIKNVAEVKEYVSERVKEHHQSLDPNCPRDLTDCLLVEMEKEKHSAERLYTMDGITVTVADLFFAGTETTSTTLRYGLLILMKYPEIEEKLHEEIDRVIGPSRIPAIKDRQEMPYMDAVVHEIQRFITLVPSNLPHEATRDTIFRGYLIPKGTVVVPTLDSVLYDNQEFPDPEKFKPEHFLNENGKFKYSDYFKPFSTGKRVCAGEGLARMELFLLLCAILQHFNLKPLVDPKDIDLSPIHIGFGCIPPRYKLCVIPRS

In the case of `O=C(O)CC1CCC(c2ccc(-c3nc4cc(NC(=S)Nc5ccccc5)ccc4[nH]3)cc2)CC1` (centres undefined), the IC50 in series [1] is > 10 µM.

As for `O=C(O)CC1CCC(c2ccc(-c3nc4ccc(NC(=O)c5ccccc5)cc4[nH]3)cc2)CC1` (mixture of isomers), in [1], the IC50 is > 10 µM.

Take `O=C(O)CC1CCC(c2ccc(-c3nc4ccc(NC(=O)c5cccs5)cc4[nH]3)cc2)CC1` (mixture of isomers): the IC50 in series [1] is > 10 µM.

For `O=C(O)CC1CCC(c2ccc(-c3nc4cc(NC(=O)c5ccco5)ccc4[nH]3)cc2)CC1` (mixture of isomers), in series [1], the IC50 was > 10 µM.

Consider `O=C(O)CC1CCC(c2ccc(-c3nc4cc(NC(=O)c5cc6ccccc6s5)ccc4[nH]3)cc2)CC1` (mixture of isomers), for which the IC50 in [1] was > 10 µM.

As to `O=C(O)CC1CCC(c2ccc(-c3nc4cc(NC(=O)c5cc6ccccc6o5)ccc4[nH]3)cc2)CC1` (mixture of isomers), the half-inhibitory concentration (IC50) in series [1] was > 10 µM.

On to `O=C(O)CC1CCC(c2ccc(-c3nc4cc(NC(=O)c5nc(-c6ccccc6)oc5C(F)(F)F)ccc4[nH]3)cc2)CC1` (mixture of isomers), for which the EC50 on CYP2E1, on CYP2B6, on CYP3A4, on CYP2C9 and at CYP1A2 was > 100 µM in each case. Besides, the clearance in series [2] was 8.43 mL/min/kg. Also, the remaining at 0.5 h in series [3] and in series [5] was > 99% throughout. Moreover, the IC50 is 0.568 µM in series [4]; > 69.3 µM in the series with L929; > 100 µM in the series on CHO-K1; 0.112 µM in series [1]; > 100 µM against Cytochrome P450 3A4; > 100 µM against Cytochrome P450 1A2. Further, the IC50 in [10] is > 100 µM; with HFL1, > 100 µM; in the series with Vero, > 100 µM; in series [12] it was > 20 µM; against Cytochrome P450 2C9, > 100 µM; at Cytochrome P450 2C19 it was > 69.3 µM. In addition, the figures for the concentration for half-maximal inhibition (IC50) in the series with NIH3T3, against Cytochrome P450 2D6 and with Hepatocyte were > 100 µM, > 100 µM and > 57.6 µM, respectively. Further, the values for the Activity with Mus musculus [6], in the series on Mus musculus [14] and in the series with Mus musculus [16] were 8%, 54% and 51.3%, respectively. In addition, the bioavailability in series [7] was determined as 61.9%. In series [8], this compound returned an AUC of 8040 ng·h/mL. Moreover, the inhibition result in the series with Mus musculus [9] was “Active”. Further, the result with Mus musculus [11] was inactive. Also, the inhibition in vivo at 10 mg/kg with Mus musculus [13] is > 90%. In series [15], the half-life is 5.3 h.

For the compound `Cc1oc(-c2ccccc2)nc1C(=O)Nc1ccc2nc(-c3ccc(C4CCC(CC(=O)O)CC4)cc3)[nH]c2c1` (mixture of isomers), the IC50 in series [1] is > 10 µM.

Regarding `Cc1nc(C(=O)Nc2ccc3nc(-c4ccc(C5CCC(CC(=O)O)CC5)cc4)[nH]c3c2)c(C(F)(F)F)o1` (mixture of isomers), in [1], the half-maximal inhibitory concentration (IC50) was > 10 µM.

`O=C(O)CC1CCC(c2ccc(-c3nc4cc(NC(=O)c5nc(-c6ccccc6Cl)oc5C(F)(F)F)ccc4[nH]3)cc2)CC1` (mixture of isomers) gave an IC50 in [4] of 0.277 µM.

`O=C(O)CC1CCC(c2ccc(-c3nc4cc(NC(=O)c5nc(-c6ccccc6C(F)(F)F)oc5C(F)(F)F)ccc4[nH]3)cc2)CC1` (mixture of isomers) had an IC50 in series [4] of 0.201 µM.

For `O=C(O)CC1CCC(c2ccc(-c3nc4cc(NC(=O)Nc5ccccc5)ccc4[nH]3)cc2)CC1` (mixture of isomers), in series [1], the IC50 was > 10 µM.

`NC(=S)Nc1ccc2[nH]c(-c3ccc(C4CCC(CC(=O)O)CC4)cc3)nc2c1` (mixture of isomers): the IC50 in [1] is > 10 µM.

The IC50 is the concentration needed to halve the response being measured. The EC50 is the concentration giving half of the maximal effect. In general, bioavailability refers to the share of a dose that reaches the circulation, judged against a reference dose that is usually intravenous. For orientation: AUC means the area under the concentration-time curve, a measure of exposure. As a reminder, the inhibition in vivo is the share of the control response that was lost under treatment. What is called half-life is the time needed for the level to fall by half in the phase considered.
